Laboratory results reported in the CheMixHub viscosity set.

Test: xn = mol fraction of the nth substance listed

CCCCCCOC(C)=O + CCCCCO
viscosity [mPa·s], 101.33 kPa
Conditions | x1 = 0.1057 | x1 = 0.2038 | x1 = 0.3074 | x1 = 0.4005 | x1 = 0.5019 | x1 = 0.6009 | x1 = 0.7083 | x1 = 0.8029 | x1 = 0.9041
293.15 K | 3.347 | 2.798 | 2.346 | 2.028 | 1.755 | 1.548 | 1.373 | 1.253 | 1.153
303.15 K | 2.392 | 2.002 | 1.682 | 1.456 | 1.262 | 1.115 | 0.991 | 0.906 | 0.835
313.15 K | 1.889 | 1.594 | 1.352 | 1.181 | 1.035 | 0.924 | 0.83 | 0.766 | 0.712

COC(C)=O + CCCCCO
298.15 K, 101.33 kPa
Conditions | viscosity [mPa·s]
x1 = 0.1014 | 2.381
x1 = 0.2082 | 1.64
x1 = 0.2879 | 1.292
x1 = 0.3821 | 1.011
x1 = 0.4786 | 0.823
x1 = 0.5766 | 0.69
x1 = 0.6788 | 0.575
x1 = 0.7517 | 0.505
x1 = 0.846 | 0.425

C1CCCCC1 + CCCCO
Conditions | viscosity [mPa·s]
298.15 K, 101 kPa, x1 = 0.1014 | 2.225
298.15 K, 101 kPa, x1 = 0.1996 | 1.945
298.15 K, 101 kPa, x1 = 0.2962 | 1.699
298.15 K, 101 kPa, x1 = 0.4016 | 1.468
298.15 K, 101 kPa, x1 = 0.5032 | 1.274
298.15 K, 101 kPa, x1 = 0.597 | 1.123
298.15 K, 101 kPa, x1 = 0.6908 | 1.02
298.15 K, 101 kPa, x1 = 0.7923 | 0.9371
298.15 K, 101 kPa, x1 = 0.8856 | 0.8954
298.15 K, 101 kPa, x2 = 0.0216 | 0.876
298.15 K, 101 kPa, x2 = 0.1208 | 0.903
298.15 K, 101 kPa, x2 = 0.155 | 0.921
298.15 K, 101 kPa, x2 = 0.1796 | 0.931
298.15 K, 101 kPa, x2 = 0.3673 | 1.09
298.15 K, 101 kPa, x2 = 0.532 | 1.357
298.15 K, 101 kPa, x2 = 0.7128 | 1.752
298.15 K, 101 kPa, x2 = 0.8385 | 2.07
303.15 K, 101 kPa, x2 = 0.6491 | 1.196
303.15 K, 101.33 kPa, x2 = 0.2111 | 0.9317
303.15 K, 101.33 kPa, x2 = 0.298 | 0.9971
303.15 K, 101.33 kPa, x2 = 0.4038 | 1.095
303.15 K, 101.33 kPa, x2 = 0.489 | 1.187
303.15 K, 101.33 kPa, x2 = 0.8096 | 1.719
303.15 K, 101.33 kPa, x2 = 0.8981 | 1.941
308.15 K, 101 kPa, x2 = 0.0216 | 0.745
308.15 K, 101 kPa, x2 = 0.0714 | 0.754
308.15 K, 101 kPa, x2 = 0.1208 | 0.765
308.15 K, 101 kPa, x2 = 0.155 | 0.779
308.15 K, 101 kPa, x2 = 0.1796 | 0.787
308.15 K, 101 kPa, x2 = 0.3673 | 0.898
308.15 K, 101 kPa, x2 = 0.532 | 1.089
308.15 K, 101 kPa, x2 = 0.6491 | 1.083
308.15 K, 101 kPa, x2 = 0.7128 | 1.387
308.15 K, 101 kPa, x2 = 0.8385 | 1.627
313.15 K, 101 kPa, x1 = 0.1014 | 1.547
313.15 K, 101 kPa, x1 = 0.1996 | 1.363
313.15 K, 101 kPa, x1 = 0.2962 | 1.203
313.15 K, 101 kPa, x1 = 0.4016 | 1.054
313.15 K, 101 kPa, x1 = 0.5032 | 0.934
313.15 K, 101 kPa, x1 = 0.597 | 0.8408
313.15 K, 101 kPa, x1 = 0.6908 | 0.7773
313.15 K, 101 kPa, x1 = 0.7923 | 0.7265
313.15 K, 101 kPa, x1 = 0.8856 | 0.6993
313.15 K, 101 kPa, x2 = 0.6491 | 0.9869
318.15 K, 101 kPa, x2 = 0.0216 | 0.643
318.15 K, 101 kPa, x2 = 0.0714 | 0.645
318.15 K, 101 kPa, x2 = 0.1208 | 0.652
318.15 K, 101 kPa, x2 = 0.155 | 0.664
318.15 K, 101 kPa, x2 = 0.1796 | 0.672
318.15 K, 101 kPa, x2 = 0.3673 | 0.754
318.15 K, 101 kPa, x2 = 0.532 | 0.895
318.15 K, 101 kPa, x2 = 0.7128 | 1.114
318.15 K, 101 kPa, x2 = 0.8385 | 1.298

CCC(C)=O + CCCCO
viscosity [mPa·s]
Conditions | 298.15 K | 308.15 K | 318.15 K
100 kPa, x1 = 0.0997 | – | 1.465 | –
100 kPa, x1 = 0.1999 | – | 1.115 | –
101.3 kPa, x2 = 0.0987 | 0.428 | 0.385 | 0.349
101.3 kPa, x2 = 0.1988 | 0.476 | 0.425 | 0.382
101.3 kPa, x2 = 0.3004 | 0.538 | 0.476 | 0.425
101.3 kPa, x2 = 0.3991 | 0.616 | 0.54 | 0.478
101.3 kPa, x2 = 0.4973 | 0.722 | 0.626 | 0.547
101.3 kPa, x2 = 0.5972 | 0.861 | 0.737 | 0.636
101.3 kPa, x2 = 0.6979 | 1.06 | 0.891 | –
101.3 kPa, x2 = 0.7995 | 1.361 | 1.121 | 0.931
101.3 kPa, x2 = 0.9028 | – | 1.458 | 1.188

CCCCCCCC(=O)OCC + CCCCO
viscosity [mPa·s], 100 kPa
Conditions | x2 = 0.1124 | x2 = 0.2221 | x2 = 0.3 | x2 = 0.4 | x2 = 0.4999 | x2 = 0.5999 | x2 = 0.727 | x2 = 0.8203 | x2 = 0.9108
293.15 K | 1.508 | 1.507 | 1.521 | 1.548 | 1.587 | 1.651 | 1.795 | 2.014 | 2.351
298.15 K | 1.378 | 1.379 | 1.378 | 1.407 | 1.436 | 1.488 | 1.61 | 1.789 | 2.071
303.15 K | 1.264 | 1.261 | 1.263 | 1.295 | 1.307 | 1.36 | 1.468 | 1.611 | 1.842
308.15 K | 1.162 | 1.161 | 1.164 | 1.177 | 1.193 | 1.233 | 1.331 | 1.458 | 1.646
313.15 K | 1.069 | 1.062 | 1.06 | 1.07 | 1.09 | 1.122 | 1.194 | 1.307 | 1.467
318.15 K | 0.999 | 0.988 | 0.99 | 0.993 | 1.013 | 1.039 | 1.106 | 1.193 | 1.327
323.15 K | 0.932 | 0.927 | 0.92 | 0.925 | 0.94 | 0.958 | 1.011 | 1.091 | 1.208

COC(C)=O + CCCCO
298.15 K, 101.33 kPa
Conditions | viscosity [mPa·s]
x1 = 0.0786 | 1.953
x1 = 0.144 | 1.566
x1 = 0.2105 | 1.28
x1 = 0.2986 | 1.019
x1 = 0.4151 | 0.791
x1 = 0.4971 | 0.677
x1 = 0.5919 | 0.576
x1 = 0.6406 | 0.534
x1 = 0.7116 | 0.484
x1 = 0.7972 | 0.44
x1 = 0.9034 | 0.402

COc1ccccc1N + CCCCO
viscosity [mPa·s], 101 kPa
Conditions | x1 = 0.1085 | x1 = 0.1811 | x1 = 0.2605 | x1 = 0.3474 | x1 = 0.4771 | x1 = 0.5867 | x1 = 0.6665 | x1 = 0.7526 | x1 = 0.8949
303.15 K | 2.547 | 2.719 | 2.91 | 3.123 | 3.448 | 3.729 | 3.943 | 4.18 | 4.597
308.15 K | 2.267 | 2.431 | 2.611 | 2.813 | 3.12 | 3.388 | 3.59 | 3.815 | 4.205
313.15 K | 2.036 | 2.194 | 2.365 | 2.554 | 2.846 | 3.103 | 3.297 | 3.516 | 3.895
318.15 K | 1.83 | 1.981 | 2.143 | 2.322 | 2.598 | 2.847 | 3.036 | 3.247 | 3.609
